In patent US20260132132A1, “3A,4,5,6-TETRAHYDRO-1 H-PYRAZOLO[3,4-C]PYRIDIN-7(7AH)-ONE DERIVATIVES AS FACTOR XIIA INHIBITORS” (KALVISTA PHARMACEUTICALS LIMITED, priority 2022, published 2026):

Tests used:
[1] = target: FXa (Homo sapiens, UniProt P00742); test: Related protease inhibition: FXa, fluorogenic substrate; assay type: biochemical; conditions: fluorogenic substrate at Km, 25° C.; H1-H3 = % activity at 40 μM
Procedure: Human serine protease enzyme Plasma Kallikrein, KLK1, FXa, Plasmin, Thrombin and Trypsin were assayed for enzymatic activity using an appropriate fluorogenic substrate at Km concentration, FXIa at fixed substrate concentration of 100 μM and various concentrations of the test compound.

[2] = target: T1, Human Factor XIIa (hFXIIa) (Homo sapiens, UniProt P00748); test: Determination of Human Factor XIIa (hFXIIa) inhibition, fluorogenic substrate IC50 assay; assay type: biochemical; conditions: fluorogenic substrate H-DPro-Phe-Arg-AFC at Km, 25° C., read-out: Human FXIIa IC50
T1 construct: purchased Enzyme Research Laboratories
T1 sequence (P00748 373-615 limits assumed): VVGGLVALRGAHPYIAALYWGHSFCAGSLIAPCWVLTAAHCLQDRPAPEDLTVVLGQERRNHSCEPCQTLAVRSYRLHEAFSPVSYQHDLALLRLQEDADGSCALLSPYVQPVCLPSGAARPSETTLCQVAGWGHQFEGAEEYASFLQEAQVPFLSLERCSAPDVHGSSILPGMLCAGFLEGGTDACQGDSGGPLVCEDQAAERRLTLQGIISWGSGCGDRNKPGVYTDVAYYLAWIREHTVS
T1 sequence (P00748 20-372 partner limits assumed): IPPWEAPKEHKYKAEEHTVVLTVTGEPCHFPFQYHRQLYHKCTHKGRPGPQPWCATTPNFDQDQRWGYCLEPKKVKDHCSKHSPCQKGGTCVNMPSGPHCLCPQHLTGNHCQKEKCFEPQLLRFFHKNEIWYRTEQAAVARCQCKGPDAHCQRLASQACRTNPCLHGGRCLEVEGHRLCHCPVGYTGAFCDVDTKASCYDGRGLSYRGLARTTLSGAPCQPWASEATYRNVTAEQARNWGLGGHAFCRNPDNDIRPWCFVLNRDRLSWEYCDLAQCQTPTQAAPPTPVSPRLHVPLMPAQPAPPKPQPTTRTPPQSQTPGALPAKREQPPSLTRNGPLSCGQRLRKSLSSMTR
Procedure: Determination of Human Factor XIIa (hFXIIa) inhibition
The Km for the cleavage of the substrate by hFXIIa was determined by standard transformation of the Michaelis-Menten equation, with subsequent inhibition assays performed at substrate Km concentration.

Chain of FXa (P00742 235-488 limits assumed): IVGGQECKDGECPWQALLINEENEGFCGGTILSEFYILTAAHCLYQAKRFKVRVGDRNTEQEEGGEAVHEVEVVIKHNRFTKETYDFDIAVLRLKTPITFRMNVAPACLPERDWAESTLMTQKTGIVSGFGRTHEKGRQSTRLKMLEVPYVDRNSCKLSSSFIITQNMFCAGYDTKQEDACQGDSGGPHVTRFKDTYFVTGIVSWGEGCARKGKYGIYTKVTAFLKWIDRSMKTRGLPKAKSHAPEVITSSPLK
Chain of FXa (P00742 41-179 partner limits assumed): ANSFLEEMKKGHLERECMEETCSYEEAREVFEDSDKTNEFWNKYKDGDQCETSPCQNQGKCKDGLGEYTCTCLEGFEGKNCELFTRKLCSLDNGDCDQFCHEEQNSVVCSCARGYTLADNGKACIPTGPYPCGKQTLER

SMILES	IC50 [1] [µM]	IC50 [2] [µM]
CN1CCc2ccc(N3CCc4c(C(=O)NC5(C)CC5)nn(-c5cccc(Cl)c5)c4C3=O)cc2C1=O [Example 1359, 1-(3-chlorophenyl)-6-(2-methyl-1-oxo-1,2,3,4-tetrahydroisoquinolin-7-yl)-N-(1-methylcyclopropyl)-7-oxo-4,5,6,7-tetrahydro-1H-pyrazolo[3,4-c]pyridine-3-carboxamide]	> 40	0.3 to 1
CN1CCc2ccc(N3CCc4c(C(=O)NC5(CO)CC5)nn(-c5cccc(Cl)c5)c4C3=O)cc2C1=O [Example 1360, 1-(3-chlorophenyl)-N-(1-(hydroxymethyl)cyclopropyl)-6-(2-methyl-1-oxo-1,2,3,4-tetrahydroisoquinolin-7-yl)-7-oxo-4,5,6,7-tetrahydro-1H-pyrazolo[3,4-c]pyridine-3-carboxamide]	10 to 40	0.3 to 1
CN1CCc2ccc(N3CCc4c(C(=O)NC5(C(=O)O)CC5)nn(-c5cccc(Cl)c5)c4C3=O)cc2C1=O [Example 1361, 1-(1-(3-chlorophenyl)-6-(2-methyl-1-oxo-1,2,3,4-tetrahydroisoquinolin-7-yl)-7-oxo-4,5,6,7-tetrahydro-1H-pyrazolo[3,4-c]pyridine-3-carboxamido)cyclopropane-1-carboxylic acid]	10 to 40	1 to 3
CCNC(=O)c1nn(-c2cccc(Cl)c2)c2c1CCN(c1cccc(N3CCOC3=O)c1)C2=O [Example 1362, 1-(3-chlorophenyl)-N-ethyl-7-oxo-6-(3-(2-oxooxazolidin-3-yl)phenyl)-4,5,6,7-tetrahydro-1H-pyrazolo[3,4-c]pyridine-3-carboxamide]	> 40	3 to 10
CCNC(=O)c1nn(-c2cccc(Cl)c2)c2c1CCN(c1cccc(N3CCCOC3=O)c1)C2=O [Example 1363, 1-(3-chlorophenyl)-N-ethyl-7-oxo-6-(3-(2-oxo-1,3-oxazinan-3-yl)phenyl)-4,5,6,7-tetrahydro-1H-pyrazolo[3,4-c]pyridine-3-carboxamide]	> 40	3 to 10
CCNC(=O)c1nn(-c2cccc(Cl)c2)c2c1CCN(c1cccc(N3CCN(C)C3=O)c1)C2=O [Example 1364, 1-(3-chlorophenyl)-N-ethyl-6-(3-(3-methyl-2-oxoimidazolidin-1-yl)phenyl)-7-oxo-4,5,6,7-tetrahydro-1H-pyrazolo[3,4-c]pyridine-3-carboxamide]	> 40	1 to 3
CCNC(=O)c1nn(-c2cccc(Cl)c2)c2c1CCN(c1cccc(N3CCCC3=O)c1)C2=O [Example 1365, 1-(3-chlorophenyl)-N-ethyl-7-oxo-6-(3-(2-oxopyrrolidin-1-yl)phenyl)-4,5,6,7-tetrahydro-1H-pyrazolo[3,4-c]pyridine-3-carboxamide]	> 40	1 to 3
CCNC(=O)c1nn(-c2cccc(Cl)c2)c2c1CCN(c1cccc(N3CCCS3(=O)=O)c1)C2=O [Example 1366, 1-(3-chlorophenyl)-6-(3-(1,1-dioxidoisothiazolidin-2-yl)phenyl)-N-ethyl-7-oxo-4,5,6,7-tetrahydro-1H-pyrazolo[3,4-c]pyridine-3-carboxamide]	10 to 40	3 to 10
CCNC(=O)c1nn(-c2cccc(Cl)c2)c2c1CCN(c1cccc(N3C(=O)CC4CC43)c1)C2=O (stereo not shown) [Example 1367, 1-(3-Chlorophenyl)-N-ethyl-7-oxo-6-(3-(3-oxo-2-azabicyclo[3.1.0]hexan-2-yl)phenyl)-4,5,6,7-tetrahydro-1H-pyrazolo[3,4-c]pyridine-3-carboxamide]	10 to 40	0.3 to 1
CCNC(=O)c1nn(-c2cccc(Cl)c2)c2c1CCN(c1cccc(N3CC4CC4C3=O)c1)C2=O (stereo not shown) [Example 1368, 1-(3-chlorophenyl)-N-ethyl-7-oxo-6-(3-(2-oxo-3-azabicyclo[3.1.0]hexan-3-yl)phenyl)-4,5,6,7-tetrahydro-1H-pyrazolo[3,4-c]pyridine-3-carboxamide]	> 40	1 to 3
CCNC(=O)c1nn(-c2cccc(Cl)c2)c2c1CCN(c1cccc(N3CC4(CC4)N(C)C3=O)c1)C2=O [Example 1369, 1-(3-chlorophenyl)-N-ethyl-6-(3-(4-methyl-5-oxo-4,6-diazaspiro[2.4]heptan-6-yl)phenyl)-7-oxo-4,5,6,7-tetrahydro-1H-pyrazolo[3,4-c]pyridine-3-carboxamide]	> 40	3 to 10
Cc1cc(CNC(=O)c2nn(-c3cccc(Cl)c3)c3c2CCN(c2ccc4c(c2)C(=O)N(C)CC(=O)N4C)C3=O)n[nH]1 [Example 1370, 1-(3-chlorophenyl)-6-(1,4-dimethyl-2,5-dioxo-2,3,4,5-tetrahydro-1H-benzo[e][1,4]diazepin-7-yl)-N-((5-methyl-1H-pyrazol-3-yl)methyl)-7-oxo-4,5,6,7-tetrahydro-1H-pyrazolo[3,4-c]pyridine-3-carboxamide]	10 to 40	0.3 to 1
CCNC(=O)c1nn(-c2cccc(Cl)c2)c2c1CCN(c1ccc3c(c1)C(=O)N(CC)CCO3)C2=O [Example 1371, 1-(3-chlorophenyl)-N-ethyl-6-(4-ethyl-5-oxo-2,3,4,5-tetrahydrobenzo[f][1,4]oxazepin-7-yl)-7-oxo-4,5,6,7-tetrahydro-1H-pyrazolo[3,4-c]pyridine-3-carboxamide]	10 to 40	0.1 to 0.3
Cc1cc(CNC(=O)c2nn(-c3cccc(Cl)c3)c3c2CCN(c2ccc4c(c2)C(=O)N(C)CC(=O)N4C)C3=O)nn1C [Example 1372, 1-(3-chlorophenyl)-N-((1,5-dimethyl-1H-pyrazol-3-yl)methyl)-6-(1,4-dimethyl-2,5-dioxo-2,3,4,5-tetrahydro-1H-benzo[e][1,4]diazepin-7-yl)-7-oxo-4,5,6,7-tetrahydro-1H-pyrazolo[3,4-c]pyridine-3-carboxamide]	10 to 40	0.3 to 1
Cc1cc(CNC(=O)c2nn(-c3cccc(Cl)c3)c3c2CCN(c2ccc4c(c2)C(=O)N(CCO)[C@H](C)CO4)C3=O)n[nH]1 [Example 1373, (R)-1-(3-chlorophenyl)-6-(4-(2-hydroxyethyl)-3-methyl-5-oxo-2,3,4,5-tetrahydrobenzo[f][1,4]oxazepin-7-yl)-N-((5-methyl-1H-pyrazol-3-yl)methyl)-7-oxo-4,5,6,7-tetrahydro-1H-pyrazolo[3,4-c]pyridine-3-carboxamide]	> 40	0.3 to 1
CCN1CCOc2ccc(N3CCc4c(C(=O)NCC5CC5)nn(-c5cccc(Cl)c5)c4C3=O)cc2C1=O [Example 1374, 1-(3-chlorophenyl)-N-(cyclopropylmethyl)-6-(4-ethyl-5-oxo-2,3,4,5-tetrahydrobenzo[f][1,4]oxazepin-7-yl)-7-oxo-4,5,6,7-tetrahydro-1H-pyrazolo[3,4-c]pyridine-3-carboxamide]	10 to 40	0.1 to 0.3
CCNC(=O)c1nn(-c2cccc(Cl)c2)c2c1CCN(c1ccc3c(c1)C(=O)N(C)CC(=O)N3C)C2=O [Example 1375, 1-(3-chlorophenyl)-6-(1,4-dimethyl-2,5-dioxo-2,3,4,5-tetrahydro-1H-benzo[e][1,4]diazepin-7-yl)-N-ethyl-7-oxo-4,5,6,7-tetrahydro-1H-pyrazolo[3,4-c]pyridine-3-carboxamide]	> 40	3 to 10
Cc1ccncc1CNC(=O)c1nn(-c2cccc(Cl)c2)c2c1CCN(c1ccc3c(c1)C(=O)N(CCCO)CCO3)C2=O [Example 1376, 1-(3-chlorophenyl)-6-(4-(3-hydroxypropyl)-5-oxo-2,3,4,5-tetrahydrobenzo[f][1,4]oxazepin-7-yl)-N-((4-methylpyridin-3-yl)methyl)-7-oxo-4,5,6,7-tetrahydro-1H-pyrazolo[3,4-c]pyridine-3-carboxamide]	3 to 10	0.01 to 0.1
Cc1cc(CNC(=O)c2nn(-c3cccc(Cl)c3)c3c2CCN(c2ccc4c(c2)C(=O)N(CCCO)CCO4)C3=O)nn1C [Example 1377, 1-(3-chlorophenyl)-N-((1,5-dimethyl-1H-pyrazol-3-yl)methyl)-6-(4-(3-hydroxypropyl)-5-oxo-2,3,4,5-tetrahydrobenzo[f][1,4]oxazepin-7-yl)-7-oxo-4,5,6,7-tetrahydro-1H-pyrazolo[3,4-c]pyridine-3-carboxamide]	3 to 10	0.01 to 0.1
Cc1cc(CNC(=O)c2nn(-c3cccc(Cl)c3)c3c2CCN(c2ccc4c(c2)C(=O)N(CCO)[C@@H](C)CO4)C3=O)nn1C [Example 1379, (S)-1-(3-chlorophenyl)-N-((1,5-dimethyl-1H-pyrazol-3-yl)methyl)-6-(4-(2-hydroxyethyl)-3-methyl-5-oxo-2,3,4,5-tetrahydrobenzo[f][1,4]oxazepin-7-yl)-7-oxo-4,5,6,7-tetrahydro-1H-pyrazolo[3,4-c]pyridine-3-carboxamide]	3 to 10	0.3 to 1
